Legend:
Sporisorium sorghi = assay: Sorghum covered kernel smut field trial (seed treatment); format: in vivo; conditions: extract 2.0 g/l, Thiram 0.25% (w/w)
Sporisorium cruentum = assay: Sorghum loose kernel smut field trial (seed treatment); format: in vivo; conditions: extract 2.0 g/l, Thiram 0.25% (w/w)
Fusarium oxysporum = assay: In vitro mycelial growth inhibition (agar dilution); format: cell-based; conditions: for concentration showing strong antifungal activity: purified compounds
[1] = pure compounds from the most active P-TLC root fraction, following acidification

Compound: CN(C)C(=S)SSC(=S)N(C)C [Thiram]
- % mean smut incidence (Sporisorium sorghi): 0b %
- Yield (ton ha^−1) (Sporisorium sorghi): 2.6ab ton ha^−1
- % mean smut incidence (Sporisorium cruentum): 0b %
- Yield (ton ha^−1) (Sporisorium cruentum): 2.1ab ton ha^−1

Compound: CC(=O)Oc1ccc(/C=C/C(=O)c2ccc(OC(C)=O)cc2OC(C)=O)cc1 [Compound 9, trans-4,2′,4′-Tri-O-acetylchalcone]
- % mycelial growth inhibition of F. oxysporum (Fusarium oxysporum; [1]): 97%
- concentration showing strong antifungal activity (Fusarium oxysporum): about 625 μg/ml

Compound: CC(=O)Oc1cc(OC(C)=O)c2c(c1)OC(c1ccc(OC(C)=O)c(OC(C)=O)c1)CC2=O (centres unmarked) [Compound 8, 5,7,3′4′-tetra-O-acetylflavanone]
- % mycelial growth inhibition of F. oxysporum (Fusarium oxysporum; [1]): 93%
- concentration showing strong antifungal activity (Fusarium oxysporum): about 625 μg/ml

Compound: 3-[{O-β-D-glucopyranosyl-(1″-3′)-α-L-rhamnosyl-(1″-2′)}-β-D-glucopyranosyloxy]agapanthegenin [Compound 1]
- % mycelial growth inhibition of F. oxysporum (Fusarium oxysporum; pure compound from the most active P-TLC aerial plant part fraction): 100%
- % mycelial growth inhibition of F. oxysporum (Fusarium oxysporum; [1]): 100%
- concentration showing strong antifungal activity (Fusarium oxysporum): approximately 125 μg/ml
